A short description of test [1]: Compound was tested for the inhibition of inducible murine macrophage nitric oxide(NO) synthase.
Test [2] can be described thus: Compound was tested for the inhibition of inducible murine macrophage expressed as inactivation constant.
Test [3] can be described thus: Compound was tested for the inhibition of inducible murine macrophage nitric oxide(NO) synthase, activity expressed as inhibitory constant.

Broadly, the Ki is the equilibrium dissociation constant of an inhibitor or competing ligand from its target. Read a low Ki as higher affinity. `N=C(NCCC[C@H](N)C(=O)O)NC1CC1` yielded a Ki in test [1] of 7.7 µM.

`C=CC/N=C(/N)NCCC[C@H](N)C(=O)O` [5-N-ALLYL-ARGININE]: the Ki in test [1] is 2.1 µM; in test [3] it was 3.4 µM. Moreover, the K inact in test [2] turned out to be 0.026 min⁻¹.

On to `CNC(=N)NCCC[C@H](N)C(=O)O` [TILARGININE], for which the K inact in test [2] is 0.05 min⁻¹. The Ki in test [3] came to 4.2 µM.
